The values below come from a melting point compilation (Tetko et al.; mined from patent text by program, amines drawn as free bases though some values may be those of a salt).

Residues, ends and D or L forms follow the SMILES beside them. *: point of attachment. Tos = Cc1ccc(S(=O)(=O)*)cc1 A value given as a limit tells only on which side of the number the result lay.

For `O=c1[nH]c(CO)nc2nc(O)cnc12`, the melting point (usually the temperature of the solid-liquid transition) is above 300 °C.

Regarding `Cc1nc(N)sc1-c1ccnc(Nc2ccc(N3CCOCC3)cc2)n1`, the melting point lay in the range of 300 to 304 °C. As to `Cn1c(CC(=O)O)ccc1C(=O)c1ccc(Br)cc1`, the melting point came to 188 °C.

The compound `Cc1nc(C)c(Cl)c(NCc2nccc(OCCCCSCCn3c([N+](=O)[O-])cnc3C)c2C)n1` yielded a melting point of 114 to 117 °C. `NC(=O)Cn1ccc2ccccc21` returned a melting point of 177 to 179 °C.

Take `CN(C)c1nc(=O)c2ccccc2n1Cc1ccc(F)cc1`: the melting point was in the range of 160 to 169 °C. `O=C(O)CCCNC(=O)c1ccccc1NC(=O)c1cccc(Cl)c1` yielded a melting point of 165 to 166 °C. Compound `CC(C)(C)c1nc2cc(N3CCSCC3)c([N+](=O)[O-])cc2s1` registered a melting point of 117 to 120 °C. With `CNCCn1nc2c3c(c(Cl)ccc31)C(=O)c1c(OCc3ccccc3)ccc(OCc3ccccc3)c1-2`, the melting point lay in the range of 171 to 176 °C. `OCc1c(Cl)ccc(C2OCCO2)c1Cl` yielded a melting point of 82 to 85 °C. For `CCCCNC(=O)OC1c2cccnc2C(=O)N1c1ccc2ccc(Cl)nc2n1` (stereo unspecified) the value was 215 °C; for `OCCCCOc1cnc(-c2ccccc2)c(-c2ccccc2)n1`, 93 to 95 °C; for `COC1(c2cc(F)cc(Sc3ccc(C(C)=O)cn3)c2)CCOCC1`, 73 to 74 °C.

`CCCOc1cccc2c1C(N)=NS(=O)(=O)N2`: the melting point fell in the range of 229 to 230 °C. For `O=[N+]([O-])c1ccc2c(c1)CCN(Cc1ccc3cc([N+](=O)[O-])ccc3n1)CC2`, the melting point was 127 to 130 °C.

As for `N#CC(CC1CCCCC1)c1ccc(Cl)cc1Cl` (stereo unspecified), the melting point stood at 58.8 °C. `CSc1cc2c(cc1C(F)(F)F)N(C(=O)Nc1ccc(C(=O)O)cc1)CC2` had a melting point above 200 °C.

As for `NCCSC(c1ccccc1)c1ccccc1`, the melting point amounted to 74 °C. On to `CCCCCc1c(C(C)C)nc(C(C)C)c(CO)c1-c1ccc(Cl)cc1`, for which the melting point fell in the range of 83 to 85 °C. For `Clc1cc(-c2ccncc2)ccn1` the value was 193 to 196 °C. In turn, `CCCCCC[C@H](C)Oc1ccc(-c2ccc(OC(=O)c3ccccc3)cc2)cc1` showed a melting point of 84 °C.

In turn, `CC(C)(C)C(NC(=O)c1ccccc1)NC(=S)Nc1cccnc1` (stereo unspecified) yielded a melting point of 193 to 194 °C. Regarding `COCc1cc(C(O)CNCCCCCCOCCc2ccc(OC)cc2)ccc1O` (stereo unspecified), the melting point fell in the range of 97.5 to 98.5 °C. Consider `CNc1nc(-c2ccc(SC)cc2)n(-c2ccc(C)c(C)c2)c(=O)c1C#N`, for which the melting point is 199 to 205 °C. The compound `c1ccc(-n2nnc3c4ccccc4c(OCc4ccccn4)nc32)cc1` displayed a melting point of 147 to 150 °C.

`O=C(O)c1ccc(N2CCN(c3ccncc3)CC2)cc1` yielded a melting point above 300 °C.

As to `C[C@@](O)(C(=O)Nc1ccc(S(=O)(=O)c2ccc(F)cc2)cc1Cl)C(F)(F)F`, the melting point fell in the range of 131 to 133 °C. Compound `CCCn1cc(Cc2ccc(C(=O)NS(=O)(=O)c3ccccc3C)cc2OC)c2cc(CC3CCN(C)C3=O)ccc21` (stereo unspecified) showed a melting point of 103 to 115 °C.

`CN1C(=O)[C@H](NC(=O)CCc2ccccc2Cl)N=C(c2ccccc2)c2ccccc21` came in with a melting point of 158 to 160 °C. For `COc1ccc(S(=O)(=O)Nc2cccc3cn[nH]c23)cc1` the value was 155 to 156 °C; for `CCCCCS(=O)(=O)NC(=O)c1ccc2nc(C)n(Cc3ccc(N(C)C(=O)C(C)(C)C)cc3Cl)c2n1`, 207 to 208 °C; for `Cc1ccc(-c2c(NS(=O)(=O)c3ccc(C(C)(C)C)cc3)nc(NCCOC3CCCCO3)nc2OCCOc2ncc(Br)cn2)cc1` (stereo unspecified), 65 to 69 °C.

`CCCc1n[nH]c2ccc(C(=O)O)cc12` displayed a melting point of 296 to 299 °C. Take `O=C(c1ccc(Br)cc1)c1cccc([N+](=O)[O-])c1`: the melting point lay in the range of 104 to 105 °C. For the compound `CN(C)c1ccc(N(c2ccccc2)C2(c3ccc(N(C)C)cc3)OC(=O)c3ccccc32)cc1` (stereo unspecified), the melting point lay within 163 to 166 °C. For `COc1cc2nc(N3CCN(c4ccnc(Oc5ccccc5)n4)CC3)nc(N)c2cc1OC` the value was 253 to 254 °C; for `CCOC(=O)Cc1ccc(Cn2c(-c3ccc(OC4CCCC4)cc3)c(C)c3cc(OCc4ccccc4)ccc32)cc1`, 96 to 98 °C.

As to `CC=C1CCC2C3CCC4CC(O)C(OCC)CC4(C)C3C(=O)CC12C` (stereo unspecified), the melting point was in the range of 172 to 178 °C. Compound `COc1ccc(NC(=O)c2cc(OC)c(OC)c(OC)c2)cc1` returned a melting point of 160 to 161 °C. Next, `Cc1ccc(S(=O)(=O)N[C@@H](CCC(=O)O)C(=O)N[C@@H](Cc2ccc(O)cc2)C(=O)O)cc1` (Tos-Glu-Tyr-OH): 173 to 175 °C; `Cc1c(NC(=O)c2ccc(OC[C@@H]3CCCO3)cc2)ccc2cc(CNC3CCC3)cnc12`: 142 to 144 °C.

Take `Nc1ccc(C(c2ccc(F)cc2)n2ccnc2)cc1[N+](=O)[O-]` (stereo unspecified): the melting point came to 147 °C.

For the compound `Cc1c(C(=O)Nc2cccc(C#N)c2N2CCC(O)CC2)cnn1C`, the melting point fell in the range of 261 to 262 °C.

The compound `C=CCOC(=O)C(C#N)=C1Nc2ccccc2O1` gave a melting point of 181 to 183 °C.

For `CN1C(=O)N(c2ccccc2)C(=O)C1=NC(Cl)C(Cl)(Cl)Cl` (stereo unspecified), the melting point lay in the range of 158 to 160 °C. `O=c1c(O)c(-c2ncn(Cc3ccc(F)cc3)n2)oc2ccccc12` displayed a melting point of 260 to 262 °C. Consider `CC(C)Cc1nn(-c2ccccc2)c(CC(C)C)c1CC(=O)O`, for which the melting point was in the range of 125 to 126 °C. `CSc1cnc2sccc2c1O`: the melting point was 203 to 205 °C. As for `Cc1ncsc1C(C)(O)c1ccco1` (stereo unspecified), the melting point was 127 to 128 °C.

Regarding `O=CNc1nc(CSc2ccncc2)cs1`, the melting point was 182 to 184 °C.

For the compound `CON=C(C)c1ccc(-c2ccc(C(=O)n3ccc4cc(OC)c(OCCN(C)C)cc43)cc2)c(C)c1`, the melting point was in the range of 120 to 121 °C. `COc1cc2cc(C(C#N)(C(C)CC#N)N3CCOCC3)sc2cc1OC` (stereo unspecified): the melting point is 162 to 165 °C.

As for `O=c1oc2cc(OCc3nnn[nH]3)cc(OCc3nnn[nH]3)c2c2c1CC(c1ccccc1)CC2` (stereo unspecified), the melting point is 235 to 245 °C. `COc1ccc(CS(=O)(=O)c2cc3c(OC)cc(OC)cc3oc2=O)cc1`: the melting point was 183 to 185 °C. In turn, `CCN(CC)c1cccc2nc(C(O)c3ccc(Cl)cc3Cl)n(CCO)c12` (stereo unspecified) came in with a melting point of 177 to 179 °C.

As to `O=C(O)C(Nc1ccc2ccccc2c1)c1c(Cl)cccc1Cl` (stereo unspecified), the melting point was determined as 94.5 °C.

Regarding `CCCCCCCCCCSc1ccc2c3c(cccc13)C(=O)N(CC(=O)O)C2=O`, the melting point was 137 to 140 °C. `Cn1nnnc1SCC(=O)NC/C=C\COc1cc(CN2CCCCC2)ccn1` yielded a melting point of 58 to 62 °C. Take `COC(=O)c1ccc(OC)c(Oc2ccccc2)c1`: the melting point was 61 to 63 °C. In turn, `Cc1c(Br)cc(Cl)c(NS(=O)(=O)c2n[nH]c(NC=O)n2)c1Cl` showed a melting point above 290 °C. `COC(=O)COc1cccnc1Br` registered a melting point of 63 to 64 °C. `CC(C)OC1=CC2=CCC3C4CCC(=O)C4(C)CCC3C2(C)CC1` (stereo unspecified) gave a melting point of 147 to 151 °C. The compound `Cc1cc(-n2ccnc2)c2cccc(OCc3c(Cl)ccc(S(=O)(=O)N4CCC[C@H]4C(=O)NCC4CCNCC4)c3Cl)c2n1` showed a melting point of 150 °C. For `COC(C)(C)C(=O)O[C@H]1C[C@H](O)C=C2C=C[C@H](C)[C@H](CC[C@@H]3C[C@@H](O)CC(=O)O3)[C@H]21` the value was 150 to 152 °C; for `CCOC(=O)c1cc(OCc2ccccc2)ccc1OCC(F)(F)F`, 145 to 146 °C; for `COc1ccc(-c2cccc3c2C(=O)OC(C)(C)O3)cn1`, 160 °C. For `CC(=O)OCc1c(C)cc(C)c(NC(=O)c2sccc2S(=O)(=O)Nc2onc(C)c2C)c1C`, the melting point lay in the range of 75 to 77 °C.

`O=S(=O)(NCCc1ccc(Nc2nnn[nH]2)cc1)c1ccc(Cl)cc1` had a melting point of 148 to 150 °C. As for `CCOc1nn(Cc2cncc(OCc3nc(-c4ccccc4)oc3C)c2)cc1CCC(=O)O`, the melting point was 133 to 134 °C.

`O=C(NC(Cc1c[nH]c2ccccc12)C(=O)CCc1cc(C(F)(F)F)cc(C(F)(F)F)c1)c1ccccc1` (stereo unspecified) returned a melting point of 119 to 122 °C.

In turn, `O=C(O)c1ccc(COCc2csc3nc(C(=O)NCc4cccc(Cl)c4)[nH]c(=O)c23)cc1` came in with a melting point of 236 to 238 °C. Consider `CCCc1ccc2nc(F)c(S(N)(=O)=O)n2n1`, for which the melting point amounted to 148 °C. `COc1ccc(NC(=O)Cn2c3c(c4c(Cl)c(Cl)ccc42)CCN(C(=O)OC(C)(C)C)CC3)cc1` came in with a melting point of 143 to 144 °C. With `CCc1noc(-c2ccccc2)c1-c1ccc(S(N)(=O)=O)cc1`, the melting point was determined as 167 °C. `CCN(CC)C(=O)CCCC1CCN(Cc2cnc3c(C)c(NC(=O)c4ccc(-c5ccc(F)cc5)cc4)ccc3c2)CC1` registered a melting point of 145 to 146 °C. Compound `CCOC(=O)c1c(-c2cnccn2)ssc1=S` showed a melting point of 125 °C.

On to `CCOC(=O)C1=C(COCCNc2nc(C(=O)NC)cs2)NC(C)=C(C(=O)OC)C1c1ccccc1Cl` (stereo unspecified), for which the melting point is 120 °C.

`Cc1csc2[nH]cc(C(=O)c3ccc(Cl)cc3)c12` came in with a melting point of 223 °C.

As for `O=[N+]([O-])C=C(NCCSCc1nccs1)NCCSCc1nccs1`, the melting point was in the range of 50 to 51 °C.

Compound `O=c1c2c(-c3ccc(O)cc3)n[nH]c2c2cccnc2n1-c1ccccc1` displayed a melting point above 300 °C. Take `COC(=O)c1cc(I)c(C(F)(F)F)cc1NC(C)=O`: the melting point lay in the range of 96 to 98 °C. As for `CN(C)c1ccc2c(c1)Sc1cc(OC(=O)c3ccccc3)ccc1N2C(=O)c1ccccc1`, the melting point lay within 194 to 200 °C. In the case of `CC(=O)CCC(CCC(C)=O)(C(C)=O)C(C)=O`, the melting point worked out at 59 °C. In the case of `COCC1CN(c2ccc3ccc(O)cc3c2)C(=O)O1` (stereo unspecified), the melting point was 155 to 157 °C. `O=C(CCl)Nc1ccc2c(c1NC(=O)CSc1ccccc1)C(=O)c1ccccc1C2=O` displayed a melting point of 161 to 162 °C.

`CCn1c(=O)c2cccc3c2n(c1=O)-c1cc(C(F)(F)F)ccc1S3` showed a melting point of 150 to 152 °C.
